Laboratory results reported in patent publication US8343979B2, “Use of alkanoyl L-carnitine for the treatment of erectile dysfunction” (Sigma-Tau Industrie Farmaceutiche Riunite S.p.A., priority 2001, dated 2013).

How the values were obtained:
[1] = test system: erectile dysfunction, diabetics or nondiabetics patients; test: preliminary experimental data on propionyl L-carnitine in erectile dysfunction; type: in vivo, human; settings: not previously treated with sildenafil
[2] = test system: diabetics patients suffering from E.D.; test: clinical trial of propionyl L-carnitine plus sildenafil in sildenafil non-responders (dynamic colour Doppler ultrasonography, IIEF); type: in vivo, human; settings: 2 g/day propionyl L-carnitine orally daily in combination with 50 mg sildenafil orally twice a week; diabetic E.D. patients not responder to sildenafil alone; after 3 and 6 months
Description: In this trial, 24 diabetics patients suffering from E.D. which were not responder to the treatment with sildenafil alone were enrolled.
2 g/day (1 g tablet twice a day) of propionyl L-carnitine were orally administered daily to the patients, and 50 mg sildenafil orally, twice a week.
In this trial, 30 diabetics patients suffering from E.D. which were not responder to the treatment with sildenafil alone were enrolled.
2 g/day (1 g tablet twice a day) of propionyl L-carnitine, were orally administered daily to the patients, and 50 mg sildenafil orally, twice a week.

CCC(=O)O[C@H](CC(=O)[O-])C[N+](C)(C)C [propionyl L-carnitine]
usefulness for treating the erectile dysfunction [1]: useful for treating the erectile dysfunction | arterial flux by dynamic colour Doppler ultrasonography [2]: improvement of the arterial flux | satisfactory clinical response evaluated with IIEF, share of treated patients [2]: 60%
